# Measurements taken from article PMC10730845, “Endoxifen downregulates AKT phosphorylation through protein kinase C beta 1 inhibition in ERα+ breast cancer” (NPJ Breast Cancer, 2023).
# Where “and” joins values, the source holds several entries; their conditions need not be identical. Equal values may be shown once. Read-outs that look alike come from different tables or passages of the source.
# Experiments:
# [1] = test system: MCF7AC1 aromatase inhibitor-sensitive and -resistant models; set-up: method as in PMID 32430040; details: cited from earlier work
# T47D-LTED cells = assay: IncuCyte Annexin V apoptosis assay, T47D-LTED; format: cell-based, human; details: CSS medium, 48 h; 5 µM
# Method: MCF7AC1 and T47D-LTED cells were plated at a density of 2000 cells per well in CSS medium for 24 h. Cells were then co-treated for 48 h with vehicle or drug, IncuCyte Annexin V green reagent (#4642, 1:300), an early-stage apoptosis marker, and IncuCyte NucLight rapid red reagent (#4717, 1:500), a dye that stains all cell nuclei red, in CSS medium. MCF7AC1^caAKT cells were plated at a cell density of 2000 cells per well in CSS medium in the absence or presence of cumate for 48 h and then co-treated with vehicle or drug, Annexin V green and NucLight rapid red reagents in the absence or presence of cumate for an additional 48 h in CSS medium.
# Supplementary Figure 6. […] Cell viability is assessed by the crystal violet assay. b, MCF7AC1 cells were co-treated with vehicle control or 0.01, 0.1 and 5 µM MK-2206 and IncuCyte Annexin V green and NucLight rapid red reagents in CSS medi um for 48 hours. […]
# Cells were plated at a density of 2000 cells per well. c, MCF7AC1 cells were treated with vehicle control or 0.01, 0.1 and 5 µM MK-2206 in CSS medium for 24 hours. […] Cell viability is assessed by the crystal violet assay. f, Parental T47D and T47D-LTED cells were processed for protein lysates. […] Percentage of cells undergoing apoptosis was calculated as mentioned in b. i, T47D-LTED cells were treated with vehicle control or 0.01, 0.1 and 5 µM MK -2206 in CSS medium for 24 hours . […]
# MDAMB436 cells = assay: Crystal violet growth assay, MDAMB436; format: cell-based, human; details: day seven
# From the text: Supplementary Figure 8. […]
# ANOVA. b, Effects of ENDX on cell proliferation at the indicated concentrations on day seven of
# treatment. […]
# [2] = cited from earlier work
# PKC nu (PKCn/PRKD3) = PKC nu (PKCn/PRKD3) (Homo sapiens, UniProt O94806); assay: In vitro kinase assay, PKC nu; format: biochemical; details: 10 μM ATP
# From the text: (§1) Supplementary Table 4. In vitro kinase assay showing the IC 50 concentration of ENDX and
# (§2) of the 12 PKC family members.
# (§3) (1 picture or pasted object on this page, not shown here)
# MDAMB231 cells = assay: IncuCyte Annexin V apoptosis assay, MDAMB231; format: cell-based, human; details: CSS medium, 48 h, 0–10 µM tested; no apoptosis below the highest concentration
# Method: Supplementary Figure 8. ENDX neither induces apoptosis nor inhibit growth of ER - breast cancer cells. a, MDAMB231 cells grown in CSS medium were co -treated with vehicle control or the indicated ENDX concentrations, IncuCyte Annexin V green and NucLight red reagents in CSS medium for 48 hours. The apoptosis graphs are presented as the green object count […]
# software. Cells were plated at a density of 2000 cells per well. Data represents the mean of six
# [3] = mice, cited from earlier work; for Cmax: read-out: Plasma Cmax
# PKC eta (PKCh) = PKC eta (PKCh) (Homo sapiens, UniProt P24723); assay: In vitro kinase assay, PKC eta; format: biochemical; details: 10 μM ATP
# From the text: as §1, §2, §3
# PKC thetha (PKCq) = PKC thetha (PKCq) (Homo sapiens, UniProt Q04759); assay: In vitro kinase assay, PKC thetha; format: biochemical; details: 10 μM ATP
# From the text: . The IC50 concentrations of these drugs in inhibiting PKC kinase activity are provided in Supplementary Table 4.
# as §1, §2
# *: not available due to no inhibition or compound activity that could not be fit to an IC50 curve.
# Staurosporine serves as the positive control.
# as §3
# Chain of PKC nu (PKCn/PRKD3) (O94806 whole entry): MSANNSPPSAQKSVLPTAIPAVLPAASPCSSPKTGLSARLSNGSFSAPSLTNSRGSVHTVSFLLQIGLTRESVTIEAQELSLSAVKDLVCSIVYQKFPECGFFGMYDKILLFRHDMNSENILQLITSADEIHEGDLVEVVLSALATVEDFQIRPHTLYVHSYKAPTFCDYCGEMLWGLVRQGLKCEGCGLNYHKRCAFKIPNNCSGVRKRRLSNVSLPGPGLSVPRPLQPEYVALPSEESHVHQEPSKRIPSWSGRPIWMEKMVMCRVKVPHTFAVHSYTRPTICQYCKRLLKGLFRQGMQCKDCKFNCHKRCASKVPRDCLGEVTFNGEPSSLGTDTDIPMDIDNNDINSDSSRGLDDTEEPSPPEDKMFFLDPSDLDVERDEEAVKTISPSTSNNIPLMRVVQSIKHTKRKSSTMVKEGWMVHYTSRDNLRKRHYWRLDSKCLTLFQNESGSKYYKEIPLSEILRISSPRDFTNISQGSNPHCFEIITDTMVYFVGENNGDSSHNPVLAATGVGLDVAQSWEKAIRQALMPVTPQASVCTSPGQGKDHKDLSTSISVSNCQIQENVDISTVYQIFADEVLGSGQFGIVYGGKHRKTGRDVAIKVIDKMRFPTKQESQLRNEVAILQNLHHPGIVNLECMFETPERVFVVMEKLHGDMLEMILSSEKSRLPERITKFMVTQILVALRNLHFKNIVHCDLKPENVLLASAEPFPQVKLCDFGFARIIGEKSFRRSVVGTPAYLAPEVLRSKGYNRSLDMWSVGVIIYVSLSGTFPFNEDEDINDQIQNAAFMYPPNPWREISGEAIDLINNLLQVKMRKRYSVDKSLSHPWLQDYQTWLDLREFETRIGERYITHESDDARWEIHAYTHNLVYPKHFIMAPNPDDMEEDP
# Chain of PKC eta (PKCh) (P24723 whole entry): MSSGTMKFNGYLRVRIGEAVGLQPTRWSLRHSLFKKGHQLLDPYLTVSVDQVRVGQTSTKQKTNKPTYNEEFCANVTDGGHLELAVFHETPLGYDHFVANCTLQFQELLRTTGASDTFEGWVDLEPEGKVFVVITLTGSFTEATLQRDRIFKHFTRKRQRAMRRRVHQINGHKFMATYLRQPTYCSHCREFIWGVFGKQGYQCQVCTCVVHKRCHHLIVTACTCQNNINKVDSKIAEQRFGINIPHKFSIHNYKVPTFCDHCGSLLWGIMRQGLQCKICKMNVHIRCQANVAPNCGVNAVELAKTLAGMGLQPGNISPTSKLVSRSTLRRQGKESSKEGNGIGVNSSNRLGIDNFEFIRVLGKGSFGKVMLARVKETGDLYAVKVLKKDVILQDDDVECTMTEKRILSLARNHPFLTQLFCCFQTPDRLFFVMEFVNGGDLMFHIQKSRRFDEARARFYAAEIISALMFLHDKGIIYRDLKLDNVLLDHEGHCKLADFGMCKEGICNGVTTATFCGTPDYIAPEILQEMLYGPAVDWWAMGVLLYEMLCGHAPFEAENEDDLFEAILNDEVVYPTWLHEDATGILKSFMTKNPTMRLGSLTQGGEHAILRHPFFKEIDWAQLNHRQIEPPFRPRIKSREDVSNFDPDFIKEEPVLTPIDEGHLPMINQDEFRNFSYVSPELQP
# Chain of PKC thetha (PKCq) (Q04759 whole entry): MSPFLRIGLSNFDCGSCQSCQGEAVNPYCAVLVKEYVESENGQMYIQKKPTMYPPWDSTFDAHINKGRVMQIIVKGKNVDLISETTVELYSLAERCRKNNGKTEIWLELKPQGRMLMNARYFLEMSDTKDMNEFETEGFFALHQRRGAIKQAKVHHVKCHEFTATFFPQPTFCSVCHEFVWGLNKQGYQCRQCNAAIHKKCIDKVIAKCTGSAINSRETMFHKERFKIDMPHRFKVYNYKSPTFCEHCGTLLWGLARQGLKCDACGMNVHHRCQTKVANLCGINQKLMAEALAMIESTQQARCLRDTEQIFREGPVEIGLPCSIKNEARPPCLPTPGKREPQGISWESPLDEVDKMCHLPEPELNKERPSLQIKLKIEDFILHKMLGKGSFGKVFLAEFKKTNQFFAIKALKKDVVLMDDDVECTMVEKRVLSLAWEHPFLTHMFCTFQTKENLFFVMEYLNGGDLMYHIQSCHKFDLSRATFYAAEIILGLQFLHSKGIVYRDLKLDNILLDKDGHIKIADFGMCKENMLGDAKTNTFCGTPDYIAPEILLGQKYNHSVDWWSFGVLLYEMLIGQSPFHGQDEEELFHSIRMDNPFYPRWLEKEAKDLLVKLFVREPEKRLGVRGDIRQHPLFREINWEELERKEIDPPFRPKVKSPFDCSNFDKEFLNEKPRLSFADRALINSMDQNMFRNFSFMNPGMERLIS
smiles,measurement,setting,value
"CC/C(=C(\c1ccc(O)cc1)c1ccc(OCCNC)cc1)c1ccccc1 [ENDX, Z-endoxifen]",In vivo antitumor activity,[1],superior in vivo antitumor activity compared to TAM and letrozole
same,"Effect on apoptosis (annexin V binding, PARP1 cleavage)",T47D-LTED cells,induced apoptosis
same,Concentrations at which growth was inhibited,MDAMB436 cells,> 7.5 µM
same,Effect on uterine weight and epithelial cell height,[2]; intact rats,substantially lowered uterine weight and increased epithelial cell height
same,Uterotrophic potency,[2]; ovariectomized Sprague-Dawley rats,less potent than estradiol in eliciting uterotrophic effects
same,IC50,PKC nu (PKCn/PRKD3),26.4 µM
same,Concentration at which apoptosis was induced,MDAMB231 cells,10 µM
same,Plasma concentration,"[3]; 25 mg/kg for five consecutive days, 25 mg/kg",73.1 ± 16.8 ng/ml and 0.20 ± 0.04 µM
same,Plasma concentration,"[3]; 100 mg/kg for five consecutive days, 100 mg/kg",1700 ± 60 ng/ml and 4.55 ± 0.16 µM
same,Plasma Cmax,[3]; single dose 25 mg/kg,103 ± 97 ng/mL
same,Cmax,[3]; single dose 25 mg/kg,280 ± 260 nM
same,Plasma Cmax,[3]; single dose 75 mg/kg,660 ± 511 ng/mL
same,Cmax,[3]; single dose 75 mg/kg,1770 ± 1370 nM
same,IC50,PKC eta (PKCh),> 50 µM
same,IC50,PKC thetha (PKCq),41.8 µM
